Laboratory results reported in patent US20240199645A1, “POLYMORPHIC FORMS OF (S)-12-FLUORO-4-(1-METHYL-1H-PYRAZOL-5-YL)-7A,8,13,14-TETRAHYDRO-7H-[1,2,4]TRIAZOLO[4',3':1,6]PYRIDO[3,2-B]BENZOFURO[4,3-FG][1,4]OXAZONINE” (Fulcrum Therapeutics, Inc., priority 2021, published 2024).

Assay: Dynamic vapor sorption (DVS) analysis
Type: physicochemical
Conditions: between about 2 to about 92% relative humidity (RH); at 25° C.
Method: Dynamic vapor sorption (DVS) analysis was performed using a DVS Intrinsic 1. The sample (25 mg) was loaded into a sample pan, suspended from a microbalance and exposed to a humidified stream of nitrogen gas. The sample was held for a minimum of 5 min at each level and only progressed to the next humidity level if there was <0.002% change in weight between measurements (interval: 60 seconds) or 240 min had elapsed.

DVS mass change expressed as equivalents of water | dynamic vapor sorption (DVS) profile, mass change | Compound
about 1.48 eq. water | about 6.34 wt. % | Cn1nccc1-c1cc2c(n3cnnc13)NCc1c(F)ccc3c1C(CO3)CO2 (stereo in doubt) [Form A, (S)-12-fluoro-4-(1-methyl-1H-pyrazol-5-yl)-7a,8,13,14-tetrahydro-7H-[1,2,4]triazolo[4′,3′:1,6]pyrido[3,2-b]benzofuro[4,3-fg][1,4]oxazonine]
– | about 0.23 wt. % | Cn1nccc1-c1cc2c(n3cnnc13)NCc1c(F)ccc3c1C(CO3)CO2 (stereo in doubt) [Form E, (S)-12-fluoro-4-(1-methyl-1H-pyrazol-5-yl)-7a,8,13,14-tetrahydro-7H-[1,2,4]triazolo[4′,3′:1,6]pyrido[3,2-b]benzofuro[4,3-fg][1,4]oxazonine]
– | about 0.38 wt. % | Cn1nccc1-c1cc2c(n3cnnc13)NCc1c(F)ccc3c1C(CO3)CO2 (stereo in doubt) [Form U, (S)-12-fluoro-4-(1-methyl-1H-pyrazol-5-yl)-7a,8,13,14-tetrahydro-7H-[1,2,4]triazolo[4′,3′:1,6]pyrido[3,2-b]benzofuro[4,3-fg][1,4]oxazonine]
